PubChem BioAssay AID1159559 (GlaxoSmithKline (GSK), 2015)
Active and inactive are the calls of the source.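 Rule for the calls: active = compounds whose IC50 against parasite growth in infected mouse cells is below 50000 nM; inactive = the rest.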

Tested on: T. cruzi Tulahuen in NIH-3T3, beta-gal fluorescence, 4 d
Assay: T. cruzi intracellular growth inhibition, cell-based (AID 1159559)

| SMILES | IC50 |
| --- | --- |
| O=C(c1cccc(Nc2ncc(-c3ccc4c(c3)OCO4)cn2)c1)N1CCSC1 | 2500 nM |
| COc1cc(OC)cc(C(NS(=O)(=O)c2ccc(Cl)c(C(F)(F)F)c2)c2nccn2C)c1 (centres undefined) | 4000 nM |
| COc1ccc(C2CC(c3ccccc3Cl)=NN2C(=O)CNC(=O)C2CCCC2)cc1 (centres undefined) | 3200 nM |
| N#Cc1cc(N2CCCC2=O)ccc1Sc1ccccc1CO | 250 nM |
| Cc1cc2cncn2c(C2CCCCN2C(=O)c2cccs2)n1 (centres undefined) | 25 nM |
| Cc1cc2ncn(-c3ccc([N+](=O)[O-])cc3C#N)c2cc1C | 1300 nM |
| CC(C)(C)Nc1nc(-c2ccccn2)nc2ccccc12 | 1300 nM |
| CCCCn1nnnc1CSc1nc(C)cc(C)c1C#N | 320 nM |
| N#Cc1cccc(CN2CCC(N(Cc3cccnc3)C(=O)c3cc(F)c(F)cc3F)CC2)c1 | 400 nM |
| COc1ccc(C(C)N(C)c2ncc3c(N)nc(N)nc3n2)cc1F (centres undefined) | 79 nM |
| Cc1cc(Nc2ccc(C#N)c(Cl)c2C)n[nH]1 | 25000 nM |
| COc1cc(C2SCC(=O)Nc3c2c(C)nn3-c2nc3ccccc3s2)cc(OC)c1O (centres undefined) | > 50000 nM (inactive) |
| CS(=O)(=O)c1ccccc1C(=O)N(Cc1ccccc1)c1ccccc1 | 50000 nM |
| Cc1cc(Oc2cc(Cl)c(Cl)cc2Cl)n2ncnc2n1 | 5000 nM |
| N#Cc1cnc(Nc2cccc(CCN3CCOCC3)c2)nc1Nc1ccccc1C(N)=O | 1300 nM |
| COc1ccc2ncc(F)c(CCN3CC[C@@H](NC(=O)c4cc5c(s4)CCC5)[C@@H](O)C3)c2n1 | 160 nM |
| Cc1nnnn1-c1cccc(C(=O)N2CCC[C@@]3(C)c4ncncc4CCC23)c1 (some centres undefined) | 630 nM |
| COc1ccc(S(=O)(=O)NCc2ccc(-c3ccc(CN(C)CCO)cc3)cc2)cc1 | 40 nM |
| Cn1nccc1NC(=O)Cn1ccc(-c2ccncc2)n1 | > 50000 nM (inactive) |
| CN(C)S(=O)(=O)c1cccc(C(=O)Nc2nc(-c3ccccn3)cs2)c1 | 1300 nM |
| c1ccc(-c2nc(NCc3ccco3)c3ccccc3n2)nc1 | 6300 nM |
| CCCCn1c(=O)c2c(N)onc2n(CCCC)c1=O | 25000 nM |
| CCc1cc(C(=O)Nc2nccn2-c2ccccc2)cs1 | 3200 nM |
| NC(=O)c1ccc(-c2cccc(OCCN3CCN(C4CCCCC4)CC3)c2)cc1 | 1600 nM |
| CCN(CC)S(=O)(=O)c1ccc(Cn2nc(C(=O)Nc3ccncn3)c3ccccc32)cc1 | 320 nM |
| CC(C)c1nn(-c2nc(N)nc(-c3ccccn3)n2)c(N)c1C1CCCCC1 | 2000 nM |
| Cc1c(C(=O)NCCCCn2ccnc2)oc2c(C)cccc12 | 200 nM |

| SMILES | IC50 |
| --- | --- |
| O=C(Nc1ccc(C(F)(F)F)cc1)Nc1cccc([N+](=O)[O-])c1 | 1000 nM |
| O=C(Nc1nc(-c2ccccn2)cs1)C1CCc2ccccc2C1 (centres undefined) | 2000 nM |
| COc1ccc(OC)c2c(=O)c(Cc3ccccc3)c(C)[nH]c12 | 200 nM |
| Cc1ccc(NC(C)C(=O)Nc2ccc(C#N)cc2)cc1S(=O)(=O)N1CCCCC1 (centres undefined) | 10000 nM |
| O=C(Nc1nc(-c2ccc(S(=O)(=O)N3CCOCC3)cc2)cs1)c1ccc([N+](=O)[O-])cc1 | 1000 nM |
| CNS(=O)(=O)c1ccccc1Nc1nc(Nc2ccnn2C)ncc1Cl | 400 nM |
| COc1ccc(S(=O)(=O)Nc2ccc(CN3CCN(C(=O)c4cccc(C#N)c4)CC3)cc2)cc1 | 1000 nM |
| COc1ncc(-c2ccc3nccc(-c4ccncc4)c3c2)cc1NS(=O)(=O)C1CC1 | 320 nM |
| O=C(Nc1ncc([N+](=O)[O-])s1)C1CC1 | 400 nM |
| COc1ccc(Nc2nc(NC3CCC(O)CC3)ncc2Br)c(C(N)=O)c1 (centres undefined) | 4000 nM |
| Cc1ccc(C)c(CN2C(=O)NC3(CCc4ccccc43)C2=O)c1 (centres undefined) | 25000 nM |
| O=C(NCc1ccncc1)c1ccccc1N1CCCN(C(=O)Cc2ccc(F)c(F)c2)CC1 | 130 nM |
| O=C1OCc2ccc(Nc3nccc(-c4cnn5ncccc45)n3)cc21 | 25 nM |
| CCOc1cnn(C)c(=O)c1Nc1ccc(C(=O)NCc2ccc(F)cc2)cc1 | 250 nM |
| O=C(NCCc1csc(-c2cccc(F)c2)n1)c1ccco1 | 1600 nM |
| COc1ccc(-c2csc(NC(=O)c3ccc([N+](=O)[O-])s3)n2)cc1 | 160 nM |
| Clc1ccc(OCCN2CCCCC2c2cccnc2)c(Cl)c1 (centres undefined) | 400 nM |
| CNc1nc(C)nc(N2CCc3cc(C(=O)NCc4ccc(-c5nccn5C)cc4Cl)ccc32)n1 | 5000 nM |
| Cc1cccc(Nc2nc(-c3ccccn3)cs2)n1 | 630 nM |
| Cc1ccc(NC(=O)c2ccnc(N3CCCC3)c2)cc1-c1cc(C(N)=O)ccc1C | 6300 nM |
| COc1ccc(NS(=O)(=O)c2cc(-c3cc(C)[nH]n3)ccc2C)cc1OC | 1300 nM |
| COc1cc(Nc2nccc(Nc3onc(C)c3C)n2)cc(S(=O)(=O)C2CCOCC2)c1 | 6300 nM |
| CN(Cc1nc2ccc(C(=O)NCC3CCCCC3)cc2[nH]1)C1CCCc2cccnc21 (centres undefined) | 500 nM |
| Nc1nc(-c2ccccn2)nc(N)c1Cc1c(F)cccc1Cl | 1600 nM |
| O=C(c1cnn(-c2ccccc2)n1)N1CCCC(n2ccnc2)C1 (centres undefined) | 50 nM |
| O=C(NCCc1cccnc1)c1csc(-c2ccccc2)n1 | 250 nM |
| O=c1cc(NCCCNCc2cc(C(F)(F)F)cs2)[nH]c2ccccc12 | 7900 nM |

| SMILES | IC50 |
| --- | --- |
| O=C(CN(Cc1ccccn1)Cc1ccccn1)NCc1csc(-c2cccs2)n1 | 4000 nM |
| Cc1ccccc1NS(=O)(=O)c1ccc2[nH]cc(C(=O)NC3CCCC(C)C3C)c(=O)c2c1 (centres undefined) | 5000 nM |
| Cc1ccc(Nc2nc(C3CCCN3Cc3ccn[nH]3)cs2)nc1 (centres undefined) | 790 nM |
| COCCn1c(-c2ccc3c(c2)OCO3)cnc1NCc1ccccc1OC | 7900 nM |
| COc1ccccc1C=CCN1C[C@H]2CCC[C@@H](C1)C2(O)c1cccnc1 (some centres undefined) | 50 nM |
| COc1cccc(S(=O)(=O)Nc2ccc3c(c2)CC(N2CCC(NC(=O)C4CC4)CC2)C3)c1 (centres undefined) | 40000 nM |
| O=C(CN(Cc1ccccn1)Cc1ccccn1)NCc1ccc(-c2csnn2)cc1 | 4000 nM |
| COc1cnc2ccc(=O)n(CCN3CCC(NC(=O)Cc4ccc(Cl)c(Cl)c4)CC3)c2c1 | 320 nM |
| COc1ccc(CN(C)Cc2ccncc2)cc1-c1ccc(S(=O)(=O)NC2CCC2)s1 | 500 nM |
| CC(C)(C)CC(=O)NCc1noc(COc2ccccc2)n1 | 2500 nM |
| COc1ccc2nc(N(Cc3cccnc3)C(=O)C3CCC3)sc2c1 | 130 nM |
| Cc1ccc(C)c(-n2nnnc2Sc2nc([N+](=O)[O-])nn2C)c1 | 500 nM |
| N#Cc1cccc(CN2CCC(c3nc(-c4ccc(C(F)(F)F)nc4)no3)CC2)c1 | 2000 nM |
| Cc1ccc(Nc2nc(N)nc(CNC(c3nc4ccccc4[nH]3)C(C)C)n2)cc1 (centres undefined) | 1000 nM |
| O=C(NCC(c1cccnc1)N1CCc2ccccc2C1)C(=O)Nc1cccc(Cl)c1 (centres undefined) | 200 nM |
| CC(CCc1ccccc1)NC(=O)CN(Cc1ccccn1)Cc1ccccn1 (centres undefined) | 2500 nM |
| OCCCNc1nc(Nc2ccncc2)nc2ccccc12 | 630 nM |
| N#Cc1cc(-c2ccnc(Nc3cccc(CN4CCOCC4)c3)n2)ccc1NCCN | 7900 nM |
| CN(C)c1ccc(-c2cc3nccnc3c(OC[C@H]3CCCNC3)n2)cn1 | 1600 nM |
| Cc1nc(C(=O)Nc2ccc3c(c2)OCO3)nn1-c1ccc(F)cc1 | 3200 nM |
| O=C(Cc1ccccc1)Nc1[nH]nc2sc(C(=O)NC3CCCC3)cc12 | 7900 nM |
| CCCc1cc(C(=O)Nc2ncc(-c3cccc(Br)c3)n2C)n[nH]1 | 2500 nM |
| CCC(=O)Nc1ccccc1C(=O)Nc1ccccn1 | > 50000 nM (inactive) |
| CCc1nn(-c2ncc(F)c(NC(C)C)n2)c(N)c1C1CCCCC1 | 3200 nM |
| Cc1cccnc1NC(=O)c1cccc(OCc2c(C)noc2C)c1 | > 50000 nM (inactive) |
